Each structure is given as a SMILES string. Where two headings read alike, the source gives them in different places. Where a SMILES comes first, the peptide text is derived from it.

The text below walks through data of patent US5032576A, “Method for controlling female moths using a peptide” (The United States of America as represented by the …, priority 1989, dated 1991).

The test system of test [1] is ligated H. zea females. Briefly: Pheromone production bioassay: injection into ligated H. zea females. As to conditions: for ng/Female H. zea (Z)-11-Hexadecenal: injected into ligated females. Format: in vivo, Heliothis zea.
Test [2] deals with ligated females of six other species of moths. On the procedure: (§1) Bioassay procedure is described in Example 6. Each female was injected
(§2) of the synthetic peptide in 10 microliter of buffer. The major component

Test [3] relates to third instar H. zea larvae. How it is done: Peptide of the Formula I, wherein X is Asp and Y is Leu(NH2) was dissolved in sucrose phosphate buffer and serially diluted to obtain 0.1, 1.0, 10, 100, and 1000 pmoles/5 μL of buffer. The peptide was then injected into third instar H. zea larvae the day before their moult to fourth instar. Observations for melanization (intense black color formation) were recorded after 48 hr.

The test system of test [4] is S. frugiperda (fall armyworm). The settings on record: per female ± SE, N = 5; 5 pmoles injected. On the procedure:
as §1, §2
(§3) Dose response of the peptide of Formula I, wherein X is Asp and Y is Leu(NH2): the peptide was dissolved in sucrose phosphate buffer and injected into ligated 3-day-old females during scotophase. Pheromone was extracted 3 hr after injection and quantified by capillary gas chromatography.

Test [5] has as its system M. sexta (tobacco hornworm). As to conditions: (E,Z)-10,12-hexadecadienal per female ± SE, N = 5; 5 pmoles injected. On the procedure: as §1, §2, §3
Test [6] has as its system D. nitidalis (pickle worm). The settings on record: (E)-11-hexadecenal per female ± SE, N = 5; 5 pmoles injected. How it is done: as §1, §2, §3
Test [7] relates to H. virescens (tobacco budworm). The settings on record: (Z)-11-hexadecenal per female ± SE, N = 5; 5 pmoles injected. How it is done:
as §1, §2, §3

Test [8] relates to L. dispar (gypsy moth). As to conditions: cis-2-decyl-3-(5-methylhexyl) oxirane per female ± SE, N = 5; 5 pmoles injected. On the procedure: as §1, §2, §3
For test [9], the system named is O. nubilalis (European corn borer). As to conditions: (E)-11-tetradecen-1-ol acetate per female ± SE, N = 5; 5 pmoles injected. On the procedure: as §1, §2, §3

Regarding `CC[C@H](C)[C@H](NC(=O)[C@H](CCC(N)=O)NC(=O)[C@H](CCC(=O)O)NC(=O)[C@@H]1CCCN1C(=O)[C@H](CC(=O)O)NC(=O)[C@H](CCC(N)=O)NC(=O)[C@H](CCCNC(=N)N)NC(=O)[C@H](Cc1ccc(O)cc1)NC(=O)[C@H](CCSC)NC(=O)[C@H](CCC(=O)O)NC(=O)[C@H](CCC(N)=O)NC(=O)[C@H](CC(=O)O)NC(=O)[C@H](C)NC(=O)[C@@H]1CCCN1C(=O)[C@@H](NC(=O)[C@H](C)NC(=O)[C@@H]1CCCN1C(=O)[C@H](CCSC)NC(=O)[C@H](CC(=O)O)NC(=O)[C@H](CC(=O)O)NC(=O)[C@H](CO)NC(=O)[C@@H](N)CC(C)C)[C@@H](C)O)C(=O)N[C@@H](CC(=O)O)C(=O)N[C@@H](CO)C(=O)N[C@@H](CCCNC(=N)N)C(=O)N[C@H](C(=O)N[C@@H](CCCCN)C(=O)N[C@@H](Cc1ccc(O)cc1)C(=O)N[C@@H](Cc1ccccc1)C(=O)N[C@@H](CO)C(=O)N1CCC[C@H]1C(=O)N[C@@H](CCCNC(=N)N)C(=O)N[C@@H](CC(C)C)C(N)=O)[C@@H](C)O` [Compound 1] (H-LSDDMPATPADQEMYRQDPEQIDSRTKYFSPRL-NH2), the “ng/Female H. zea (Z)-11-Hexadecenal” value in test [1] (Dose 1.0 pMole) is 4.6 ng/Female; in test [1] (Dose 10.0 pMole), 128.2 ng/Female; in test [1] (Dose 100.0 pMole) it was 179.9 ng/Female. Also, the “pheromone production at doses greater than 4.0 pmoles” value in [1] (doses greater than 4.0 pmoles) is “significant decrease”. Also, the “production of the sex pheromone” value in test [1] (injected into ligated H. zea females) is listed as “normal production”. The “quantity of pheromone produced relative to that found in normal females” value in test [2] (in two of the six species) was 6-7 times. For the same compound, the “production of their respective pheromones” value in test [2] (injected into ligated females of six other species) is given as “significant amounts”. The melanization is reported as 100% in [3] (10 pmole dose, recorded after 48 hr) and “intense melanization” in test [3] (10 pmoles/larva, after the moult to the fourth instar). The mortality result in test [3] (10 pmoles/larva, associated with melanization) is reported as “significant mortality”. The “Quantity of the Major Component in the Pheromone of Hex-PBAN injected Female” value was determined as 42.9 ± 12.2 ng in [4]; 65.4 ± 11.9 ng in test [5]; 49.2 ± 16.3 ng in test [6]; 189.2 ± 12.2 ng in [7]; 2.5 ± 0.4 ng in test [8]; 6.7 ± 1.1 ng in [9].

On to `CC[C@H](C)[C@H](NC(=O)[C@H](CCC(N)=O)NC(=O)[C@H](CCC(=O)O)NC(=O)[C@@H]1CCCN1C(=O)[C@H](CC(=O)O)NC(=O)[C@H](CCC(N)=O)NC(=O)[C@H](CCCNC(=N)N)NC(=O)[C@H](Cc1ccc(O)cc1)NC(=O)[C@H](CCSC)NC(=O)[C@H](CCC(=O)O)NC(=O)[C@H](CCC(N)=O)NC(=O)[C@H](CC(=O)O)NC(=O)[C@H](C)NC(=O)[C@@H]1CCCN1C(=O)[C@@H](NC(=O)[C@H](C)NC(=O)[C@@H]1CCCN1C(=O)[C@H](CCSC)NC(=O)[C@H](CC(=O)O)NC(=O)[C@H](CC(=O)O)NC(=O)[C@H](CO)NC(=O)[C@@H](N)CC(C)C)[C@@H](C)O)C(=O)N[C@@H](CC(N)=O)C(=O)N[C@@H](CO)C(=O)N[C@@H](CCCNC(=N)N)C(=O)N[C@H](C(=O)N[C@@H](CCCCN)C(=O)N[C@@H](Cc1ccc(O)cc1)C(=O)N[C@@H](Cc1ccccc1)C(=O)N[C@@H](CO)C(=O)N1CCC[C@H]1C(=O)N[C@@H](CCCNC(=N)N)C(=O)N[C@@H](CC(C)C)C(=O)O)[C@@H](C)O` [Compound 4] (H-LSDDMPATPADQEMYRQDPEQINSRTKYFSPRL-OH), for which the “ng/Female H. zea (Z)-11-Hexadecenal” value came out at 0.9 ng/Female in test [1] (Dose 10.0 pMole), 3.2 ng/Female in test [1] (Dose 100.0 pMole) and 112.1 ng/Female in test [1] (Dose 1000.0 pMole).

Consider `CC[C@H](C)[C@H](NC(=O)[C@H](CCC(N)=O)NC(=O)[C@H](CCC(=O)O)NC(=O)[C@@H]1CCCN1C(=O)[C@H](CC(=O)O)NC(=O)[C@H](CCC(N)=O)NC(=O)[C@H](CCCNC(=N)N)NC(=O)[C@H](Cc1ccc(O)cc1)NC(=O)[C@H](CCSC)NC(=O)[C@H](CCC(=O)O)NC(=O)[C@H](CCC(N)=O)NC(=O)[C@H](CC(=O)O)NC(=O)[C@H](C)NC(=O)[C@@H]1CCCN1C(=O)[C@@H](NC(=O)[C@H](C)NC(=O)[C@@H]1CCCN1C(=O)[C@H](CCSC)NC(=O)[C@H](CC(=O)O)NC(=O)[C@H](CC(=O)O)NC(=O)[C@H](CO)NC(=O)[C@@H](N)CC(C)C)[C@@H](C)O)C(=O)N[C@@H](CC(N)=O)C(=O)N[C@@H](CO)C(=O)N[C@@H](CCCNC(=N)N)C(=O)N[C@H](C(=O)N[C@@H](CCCCN)C(=O)N[C@@H](Cc1ccc(O)cc1)C(=O)N[C@@H](Cc1ccccc1)C(=O)N[C@@H](CO)C(=O)N1CCC[C@H]1C(=O)N[C@@H](CCCNC(=N)N)C(=O)N[C@@H](CC(C)C)C(N)=O)[C@@H](C)O` [Compound 3] (H-LSDDMPATPADQEMYRQDPEQINSRTKYFSPRL-NH2), for which the “ng/Female H. zea (Z)-11-Hexadecenal” value turned out to be 1.7 ng/Female in test [1] (Dose 1.0 pMole), 97.1 ng/Female in [1] (Dose 10.0 pMole) and 145.7 ng/Female in test [1] (Dose 100.0 pMole).
